Assay results published in patent US20140066431A1, “Benzoxazepines as Inhibitors of PI3K/mTOR and Methods of Their Use and Manufacture” (Exelixis, Inc., priority 2010, published 2014).
pIC50: −log10 of the molar value. Read-outs that look alike come from different tables or passages of the source.

Experiments:
[1] = target: mTOR/GbL/Raptor (mTORC1) (Homo sapiens, UniProt P42345); test: mTOR/GbL/Raptor (mTORC1) ELISA assay; assay type: biochemical
Protocol: The measurement of mTORC1 enzyme activity was performed in an ELISA assay format following the phosphorylation of 4E-BP1 protein. All experiments were performed in the 384-well format. Generally, 0.5 μL DMSO containing varying concentrations of the test compound was mixed with 15 μL enzyme solution. Kinase reactions were initiated with the addition of 15 μL of substrates-containing solution. The assay conditions were as follows; 0.2 nM mTORC1, 10 μM ATP and 50 nM NHis-tagged 4E-BP1 in 20 mM Hepes, pH 7.2, 1 mM DTT, 50 mM NaCl, 10 mM MnCl2, 0.02 mg/mL BSA, 0.01% CHAPS, 50 mM β-glycerophosphate. Following an incubation of 120 minutes at ambient temperature, 20 μL of the reaction volume was transferred to a Ni-Chelate-coated 384-well plate. The binding step of the 4E-BP1 protein proceeded for 60 minutes, followed by washing 4 times each with 50 μL of Tris-buffered saline solution (TBS). Anti-phospho-4E-BP1 rabbit-IgG (20 μL, 1:5000) in 5% BSA-TBST (0.2% Tween-20 in TBS) was added and further incubated for 60 minutes. Incubation with a secondary HRP-tagged anti-IgG was similarly performed after washing off the primary antibody (4 washes of 50 μL). Following the final wash step with TBST, 20 μL of SuperSignal ELISA Femto (Pierce Biotechnology) was added and the luminescence measured using an EnVision plate reader.

[2] = target: PI3Kα (Homo sapiens, UniProt P42336); test: PI3K biochemical assay (ATP consumption, luciferase-luciferin)
Protocol: PI3Kα activity is measured as the percent of ATP consumed following the kinase reaction using luciferase-luciferin-coupled chemiluminescence. Reactions were conducted in 384-well white, medium binding microtiter plates (Greiner). Kinase reactions were initiated by combining test compounds, ATP, substrate (PIP2), and kinase in a 20 μL volume in a buffer solution. The standard PI3Kalpha assay buffer is composed 50 mM Tris, pH 7.5, 1 mM EGTA, 10 mM MgCl2, 1 mM DTT and 0.03% CHAPS. The standard assay concentrations for enzyme, ATP, and substrate are 1.5 nM, 1 μM, and 10 μM, respectively. The reaction mixture was incubated at ambient temperature for approximately 2 h. Following the kinase reaction, a 10 μL aliquot of luciferase-luciferin mix (Promega Kinase-Glo) was added and the chemiluminescence signal measured using a Victor2 plate reader (Perkin Elmer). Total ATP consumption was limited to 40-60% and IC50 values of control compounds correlate well with literature references. Substituting PI3Kα with PI3Kβ, PI3Kγ, or PI3Kδ, the inhibitory activity of the compounds for the other isoforms of I3K were measured.

PI3Kα, sequence (P42336 whole entry): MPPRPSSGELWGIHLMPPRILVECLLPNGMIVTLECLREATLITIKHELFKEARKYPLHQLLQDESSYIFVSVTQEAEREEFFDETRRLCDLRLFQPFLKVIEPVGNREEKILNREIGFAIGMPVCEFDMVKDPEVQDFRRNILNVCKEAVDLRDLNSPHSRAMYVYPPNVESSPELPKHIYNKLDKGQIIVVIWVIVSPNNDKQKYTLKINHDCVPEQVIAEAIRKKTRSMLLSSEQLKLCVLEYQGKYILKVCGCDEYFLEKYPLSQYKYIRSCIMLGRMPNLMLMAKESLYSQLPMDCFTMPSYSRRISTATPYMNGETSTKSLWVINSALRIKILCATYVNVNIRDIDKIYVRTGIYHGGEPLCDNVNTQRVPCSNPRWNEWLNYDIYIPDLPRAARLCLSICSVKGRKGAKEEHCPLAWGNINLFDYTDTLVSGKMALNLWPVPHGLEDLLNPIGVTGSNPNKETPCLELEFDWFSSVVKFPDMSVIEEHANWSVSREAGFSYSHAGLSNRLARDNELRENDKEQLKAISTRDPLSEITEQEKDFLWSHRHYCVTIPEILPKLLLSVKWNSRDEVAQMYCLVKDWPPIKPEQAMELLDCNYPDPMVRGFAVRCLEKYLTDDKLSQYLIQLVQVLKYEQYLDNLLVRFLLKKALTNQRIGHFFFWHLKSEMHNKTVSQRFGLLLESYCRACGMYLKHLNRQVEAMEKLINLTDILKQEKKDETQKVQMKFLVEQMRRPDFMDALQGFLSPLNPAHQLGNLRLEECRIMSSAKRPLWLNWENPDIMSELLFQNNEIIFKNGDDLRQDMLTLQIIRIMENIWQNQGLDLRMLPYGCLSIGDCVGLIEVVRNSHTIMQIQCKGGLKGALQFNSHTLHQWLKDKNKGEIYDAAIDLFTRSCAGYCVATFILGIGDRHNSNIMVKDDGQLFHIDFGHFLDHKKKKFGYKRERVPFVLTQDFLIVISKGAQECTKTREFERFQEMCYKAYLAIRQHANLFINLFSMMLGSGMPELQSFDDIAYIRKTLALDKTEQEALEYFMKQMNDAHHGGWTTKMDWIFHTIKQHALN
PI3Kα, sequence (P27986 whole entry partner): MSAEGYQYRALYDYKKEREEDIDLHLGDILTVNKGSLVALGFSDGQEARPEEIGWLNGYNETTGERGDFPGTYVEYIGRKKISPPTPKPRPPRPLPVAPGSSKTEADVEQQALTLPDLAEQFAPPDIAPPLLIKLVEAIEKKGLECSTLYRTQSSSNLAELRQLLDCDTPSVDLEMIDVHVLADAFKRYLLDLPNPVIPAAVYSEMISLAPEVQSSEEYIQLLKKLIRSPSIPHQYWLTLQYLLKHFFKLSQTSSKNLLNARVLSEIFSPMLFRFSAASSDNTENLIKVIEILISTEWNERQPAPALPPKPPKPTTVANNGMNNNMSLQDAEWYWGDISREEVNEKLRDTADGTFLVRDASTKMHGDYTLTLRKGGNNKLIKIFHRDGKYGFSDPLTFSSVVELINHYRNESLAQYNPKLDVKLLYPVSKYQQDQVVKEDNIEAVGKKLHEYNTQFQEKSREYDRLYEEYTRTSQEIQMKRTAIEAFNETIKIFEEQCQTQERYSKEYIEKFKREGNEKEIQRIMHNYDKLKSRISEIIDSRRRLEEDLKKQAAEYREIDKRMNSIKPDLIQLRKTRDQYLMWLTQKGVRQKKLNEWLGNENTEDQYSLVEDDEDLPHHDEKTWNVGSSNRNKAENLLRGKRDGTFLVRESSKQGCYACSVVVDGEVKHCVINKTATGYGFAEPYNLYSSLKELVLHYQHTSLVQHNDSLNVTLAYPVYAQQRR

A pIC50 ([1]; 4EBP1 as substrate for mTOR/GbL/raptor kinase, read-out: biochemical IC50 mTOR) of 4.96, a pIC50 ([1]; Table 5, read-out: Biochemical IC50 mTOR) of 4.96 and a pIC50 ([2]; PIP2 as substrate, read-out: PI3K biochemical IC50 PI3Kα) of 5.75 were found for Cc1cc(C(C)Nc2ccccc2)c2nc(N3CCOCC3)cc(=O)n2c1 (stereo not shown) [TGX-221, 7-methyl-2-(4-morpholinyl)-9-[1-(phenylamino)ethyl]-4H-pyrido[1,2-a]pyrimidin-4-one] in this work. The pIC50 ([2]; Table 5, read-out: Biochemical IC50 PI3Kα) was 5.75.
